Columns and labels:
[1] = target: T1, Mycoplasma arginini arginine deiminase (ADIPROT, ATCC 23243), recombinant, expressed in E. coli, SEQ ID NO: 1 (Mycoplasmopsis arginini, UniProt P23793); assay: Kinetic characterization (Km, Vmax, affinity) of recombinant ADI with arginine, quantifying citrulline production; assay type: biochemical; conditions: about; range given for the enzymes of the three Mycoplasma species; various concentrations of arginine
T1 construct: made in house; host or cells: E. coli
T1 sequence (P23793 whole entry E126K): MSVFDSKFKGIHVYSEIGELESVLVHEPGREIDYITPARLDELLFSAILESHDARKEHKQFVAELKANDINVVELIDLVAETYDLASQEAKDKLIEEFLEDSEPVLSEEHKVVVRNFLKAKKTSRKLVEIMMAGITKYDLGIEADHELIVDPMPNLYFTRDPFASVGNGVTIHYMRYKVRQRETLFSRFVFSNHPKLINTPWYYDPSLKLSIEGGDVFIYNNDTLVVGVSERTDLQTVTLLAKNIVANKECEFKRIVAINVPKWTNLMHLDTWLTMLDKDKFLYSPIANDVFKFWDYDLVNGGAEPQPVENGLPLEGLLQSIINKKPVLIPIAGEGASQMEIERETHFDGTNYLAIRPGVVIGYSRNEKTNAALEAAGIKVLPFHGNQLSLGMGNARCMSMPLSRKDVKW
Source text: (§1) Cultures of Mycoplasma arginini (ATCC 23243), Mycoplasma hominus (ATCC 23114) and Mycoplasma arthritides (ATCC 23192) were obtained from the American Type Culture Collection, Rockville, Md.
(§2) Arginine deiminase was cloned from Mycoplasma arginini, Mycoplasma hominus and Mycoplasma arthritides and expressed in E. coli as previously described by S. Misawa et al, J. Biotechnology, 36:145-155 (1994), the disclosure of which is hereby incorporated herein by reference in its entirety. The top amino acid sequence, identified as ADIPROT, is from Mycoplasma arginini; the middle amino acid sequence, identified as ARTADIPRO, is from Mycoplasma arthritides; and the bottom amino acid sequence, identified as HOMADIPRO, is from Mycoplasma hominus. Each of the amino acid sequences are more than 96% conserved. […] The pH optima was determined using a citrate buffer (pH 5-6.5), a phosphate buffer (pH 6.5-7.5) and a borate buffer (pH 7.5-8.5). The Km and Vmax were determined by incubating the enzyme with various concentrations of arginine and quantifying citrulline production. The Km for the various enzymes was about 0.02 to 0.06 μM and the Vmax was about 15-20 μmol/min/mg, the values of which are within standard error of each other.
(§3) The proteins from each of the above three species of Mycoplasma have approximately 95% homology and are readily purified by column chromatography. […]

[2] = target: T2, Mycoplasma hominus arginine deiminase (HOMADIPRO, ATCC 23114), recombinant, expressed in E. coli, SEQ ID NO: 3 (Metamycoplasma hominis, UniProt P41141); assay: as above; assay type: biochemical; conditions: about; range given for the enzymes of the three Mycoplasma species; various concentrations of arginine
T2 construct: tag not given
T2 sequence (P41141 whole entry): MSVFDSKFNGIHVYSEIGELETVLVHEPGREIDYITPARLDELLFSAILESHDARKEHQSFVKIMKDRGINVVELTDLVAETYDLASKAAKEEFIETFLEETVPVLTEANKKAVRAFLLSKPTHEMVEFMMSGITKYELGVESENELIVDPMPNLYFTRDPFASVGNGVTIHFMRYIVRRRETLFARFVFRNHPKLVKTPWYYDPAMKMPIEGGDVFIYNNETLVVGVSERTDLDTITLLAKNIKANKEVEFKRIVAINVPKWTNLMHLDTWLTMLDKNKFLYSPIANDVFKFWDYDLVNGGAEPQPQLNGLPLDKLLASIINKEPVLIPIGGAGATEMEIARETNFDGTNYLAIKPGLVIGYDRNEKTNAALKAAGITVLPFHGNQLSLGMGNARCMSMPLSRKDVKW
Source text: as §1, §2, §3

In the case of `N=C(N)NCCC[C@H](N)C(=O)O` [arginine, L-arginine], the Vmax [1] is reported as 15 to 20 µmol/min/mg and the Vmax [2] is reported as 15 to 20 µmol/min/mg.
